The text below walks through data of ChEMBL document CHEMBL5729371, “Compound functioning as bromodomain protein inhibitor, and composition” (2022).

In test [1] the target is T1, Bromodomain-containing protein 4 (Homo sapiens, UniProt O60885). As to the kind of experiment: (§1) Inhibitory Activity Assay: The assays of BRD4 (D1) and BRD4 (D2) were conducted in a 384-well polystyrene plate. The test compounds were first serially diluted in DMSO and the test compound/DMSO were transferred to 384-well plates. The final concentration of DMSO in the assay was 0.1%. 2 volumes of protein/peptide mixture were added into 384-well plates, then 2 volumes of assay mixture were added, and shake for 30 s. The plate was incubated at room temperature for 2 h. Then the HTRF signal on EnVision was readed.

The target of test [2] is T1, Bromodomain-containing protein 4. The description is as §1. This is another data set of the same source.

pIC50: −log10 of the molar value.

Turning to `CCS(=O)(=O)Nc1cc(-c2cn(C)c(=O)c3[nH]ccc23)cc2c1nc(C)n2Cc1ccc(Cl)cc1`, the negative logarithm of the IC50 (pIC50) was 9.40 in test [1] and 9.00 in test [2].

For the molecule `Cc1nc2ncc(-c3cn(C)c(=O)c4[nH]ccc34)cc2n1Cc1cccc(Cl)c1`, the pIC50 was 8.85 in test [1] and 8.38 in test [2].

Take `Cc1nc2ncc(-c3cn(C)c(=O)c4[nH]ccc34)nc2n1Cc1ccc(Cl)cc1`: the negative logarithm of the IC50 (pIC50) is 8.77 in test [1] and 8.16 in test [2].
